Experimental data from ChEMBL document CHEMBL3351610, “Synthesis and biological evaluation of substituted 4-(thiophen-2-ylmethyl)-2H-phthalazin-1-ones as potent PARP-1 inhibitors” (Bioorg Med Chem Lett, 2014).

The molecules below were run against Poly [ADP-ribose] polymerase 1 (Homo sapiens, UniProt P09874) (assay: Inhibition of human PARP1).
Poly [ADP-ribose] polymerase 1, sequence (P09874 whole entry): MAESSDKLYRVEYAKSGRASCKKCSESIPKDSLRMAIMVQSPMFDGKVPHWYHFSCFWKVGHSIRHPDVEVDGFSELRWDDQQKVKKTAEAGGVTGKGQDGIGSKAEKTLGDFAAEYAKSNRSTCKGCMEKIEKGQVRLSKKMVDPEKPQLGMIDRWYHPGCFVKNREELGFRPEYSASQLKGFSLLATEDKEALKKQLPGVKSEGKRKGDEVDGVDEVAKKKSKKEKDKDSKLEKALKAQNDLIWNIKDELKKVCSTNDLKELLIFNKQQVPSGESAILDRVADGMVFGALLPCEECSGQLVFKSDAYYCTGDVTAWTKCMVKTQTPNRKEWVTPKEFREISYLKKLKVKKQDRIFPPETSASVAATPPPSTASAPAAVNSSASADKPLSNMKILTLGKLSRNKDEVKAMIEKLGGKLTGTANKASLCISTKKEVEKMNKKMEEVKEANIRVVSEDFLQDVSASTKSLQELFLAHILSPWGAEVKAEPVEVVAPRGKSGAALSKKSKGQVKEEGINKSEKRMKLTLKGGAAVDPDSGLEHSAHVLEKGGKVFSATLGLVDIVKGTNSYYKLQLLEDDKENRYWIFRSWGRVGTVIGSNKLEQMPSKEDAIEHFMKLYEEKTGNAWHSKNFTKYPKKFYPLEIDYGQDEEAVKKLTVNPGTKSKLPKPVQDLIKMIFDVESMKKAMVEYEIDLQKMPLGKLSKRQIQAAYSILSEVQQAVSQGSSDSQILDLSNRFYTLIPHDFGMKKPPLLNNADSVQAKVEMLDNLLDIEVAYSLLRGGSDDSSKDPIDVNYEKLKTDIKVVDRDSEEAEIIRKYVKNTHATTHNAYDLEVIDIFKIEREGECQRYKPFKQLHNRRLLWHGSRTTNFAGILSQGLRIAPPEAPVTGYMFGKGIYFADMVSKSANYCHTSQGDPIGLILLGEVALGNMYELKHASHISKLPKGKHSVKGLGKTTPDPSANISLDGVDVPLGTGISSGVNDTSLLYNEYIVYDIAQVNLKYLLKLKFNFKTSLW
Work on `O=C(c1ccncc1)N1CCN(C(=O)c2csc(Cc3n[nH]c(=O)c4ccccc34)c2)CC1` yielded an IC50 of 108 nM. `O=C(c1ccc(Br)cc1)N1CCN(C(=O)c2csc(Cc3n[nH]c(=O)c4ccccc34)c2)CC1` was tested, and the IC50 was 72.3 nM. In the case of `O=C(c1csc(Cc2n[nH]c(=O)c3ccccc23)c1)N1CCN(C(=O)c2ccc3c(c2)OCO3)CC1`, the IC50 is reported as 39.6 nM. `O=C(c1csc(Cc2n[nH]c(=O)c3ccccc23)c1)N1CCN(C(=O)c2cccs2)CC1` was tested, and the IC50 was 10.8 nM. Work on `N#Cc1ccc(C(=O)N2CCN(C(=O)c3csc(Cc4n[nH]c(=O)c5ccccc45)c3)CC2)cc1` yielded an IC50 of 85.5 nM. Work on `CC(=O)N1CCN(C(=O)c2csc(Cc3n[nH]c(=O)c4ccccc34)c2)CC1` yielded an IC50 of 124 nM. With `COc1ccc(CC(=O)N2CCN(C(=O)c3csc(Cc4n[nH]c(=O)c5ccccc45)c3)CC2)cc1` the IC50 was 94.9 nM. `O=C(c1csc(Cc2n[nH]c(=O)c3ccccc23)c1)N1CCN(C(=O)C2CC2)CC1` was tested, and the IC50 was 105 nM. With `O=C(c1csc(Cc2n[nH]c(=O)c3ccccc23)c1)N1CCN(C(=O)c2ccccn2)CC1` the IC50 was 46.1 nM. Molecule `CCC(=O)N1CCN(C(=O)c2csc(Cc3n[nH]c(=O)c4ccccc34)c2)CC1` has an IC50 of 78.6 nM.
